The values that follow are results of earlier work, collected in patent US12029741B1, “5 beta dihydrotestosterone pharmaceutical formulations and related methods” (priority 2021, dated 2024).

The conditions of data set [1]: transdermal treatment; called an estimate.
The next data set relates to Vascular Vessels. The following applies: result in words.

For `C[C@]12CCC(=O)C[C@@H]1CC[C@@H]1[C@@H]2CC[C@]2(C)[C@@H](O)CC[C@@H]12` [5α-DHT, 5α-dihydrotestosterone], the terminal half-life in data set [1] is 2.83 h. For the same molecule, in the data set with Vascular Vessels, the “efficacy as a vasodilator compared with testosterone” value is on record as “less efficacious than testosterone”. With `C[C@]12CCC(=O)C[C@H]1CC[C@@H]1[C@@H]2CC[C@]2(C)[C@@H](O)CC[C@@H]12` [5β-DHT, 17β-hydroxy-5β-androstan-3-one], the “efficacy as a vasodilator compared with testosterone” value in the data set on Vascular Vessels is on record as “more efficacious and/or potent than testosterone”. On to `C[C@]12CC[C@H]3[C@@H](CCC4=CC(=O)CC[C@@]43C)[C@@H]1CC[C@@H]2O` [testosterone], for which the terminal half-life in data set [1] was 1.29 h.
